Laboratory results published in patent publication US11364286B2, “Compositions and methods for the treatment of diseases involving mucin” (priority 2015, dated 2022).
Structures can show the parent of a compound that is named as a salt.

Legend:
[1] = tested on: soft mucin from PMP patients; experiment: Disintegration of soft PMP mucin (weight of remnant mucin after incubation with the agents); assay type: biochemical, human; settings: for effect of individual agents on mucin weight over time: Bromelain 300 & 200 μg/ml, NAC 250 mM, Cysteamine 200 mM alone, 0.5-3 h 37°C; for Percentage Disintegration of Mucin Samples: 0 μg/ml BR, negative = gain in weight
Method: Mucin samples from PMP patients were collected and stored under sterile conditions at −80° C. For experiments, the mucin was thawed to room temperature before use. One gram of soft mucin was transferred to a 50 ml centrifuge tube containing 10 ml of either 0.1 M TRIS buffer (pH. 7.0)—controls or similar arrangement containing various concentrations of cysteamine, bromelain or a mixture of the latter two reagents. The concentrations of bromelain investigated ranged from 100-300 μg/ml whilst for cysteamine it was 12.5, 25, 50, 100 and 200 mM. Stock solutions were prepared under sterile conditions in TRIS buffer pH adjusted to 7.0 using 0.1 M Sodium Hydroxide or 0.1 M Hydrochloric acid and the required quantities were added to the respective centrifuge tubes containing the mucin. The tubes were then transferred to a shaking water bath at 37° C. for 2 hours.
At the end of incubation, the remnant mucin was retrieved and weighed. The experiment was carried out using triplicate tubes and readings averaged. All experiments were performed in triplicate.
To a 50 ml centrifuge tube containing 1 g of mucin was added 10 ml of TRIS pH. 7.0 containing 300 μg/ml bromelain+250 mM NAC. Similarly, to 1 g of mucin was added 10 ml of TRIS buffer containing 200 μg/ml bromelain+200 mM cysteamine. For each time interval (0.5, 1.0, 1.5, 2.0, 2.5 and 3.0 h), a total of 6 tubes in triplicate were prepared. The controls contained, TRIS, Bromelain (300 μg/ml & 200 μg/ml), NAC (250 mM) and Cysteamine (200 mM) with mucin (also prepared for each time interval, in triplicates).
The tubes were incubated at 37° C., in a shaker water bath, sample tubes were retrieved at time interval of 0.5 hour and remnant mucin was carefully retrieved and weighed. Percentage weight lost was calculated as follows:
Percentage weight lost (disintegration)=[mucin weight (at 0 hr)−mucin weight (2 or 3 hr)]/mucin weight (at 0 hr).
The experiment was set up as outlined above in Examples 1 and 2 above, however using 10, 20, 40, 60, 80 & 100 μg/ml bromelain with varying concentrations of cysteamine (10, 20, 30, 40 & 50 mM) and the incubation was carried out at 37° C. in a shaker for 3 hours. The controls contained TRIS buffer, 10, 20, 40, 60, 80 & 100 μg/ml bromelain and 10, 20, 30, 40 & 50 mM cysteamine. Each tube was prepared in triplicate and readings averaged.
Experiments were set up as before using 1 g of mucin in a 50 ml centrifuge tube containing either TRIS buffer (pH 7.0), 50 μg/ml bromelain, 50 mM cysteamine or a combination of the last two agents. Six samples from each grades of mucin (soft, semi-hard and hard) were chosen for the experiment and the tubes were incubated in a shaker water bath at 37° C. for duration of 3 hours. The remnant mucin were carefully retrieved and weighed.

[2] = tested on: human ovarian cancer cell line A2780; experiment: Cell viability, SRB assay, 3 days, A2780; assay type: cell-based; set-up: unit not given here; settings: A2780, 3 days
Method: All cells were maintained at 37° C. The cytotoxic effects of cysteamine, bromelain and the chemotherapeutic agent cisplatin were assessed. Each agent was administered to the cells either alone or in combination with either or both of the other agents. All cells were treated for 72 hours with the reagents and the cell populations were assessed using the SRB assay. Where possible, IC50 and ICmax were calculated. […] Cells were subjected to various treatment regimens as indicated for 3 days before SRB assays were performed.

PET mesothelioma cells = experiment: Cell viability, SRB assay, 72 h, PET cells; assay type: cell-based; settings: Cysteamine single agent
Method: (§1) 5000 cells of each cell line were plated in 96 well plates and grown for 48 hrs at 37° C. in humidified CO2 incubator. After this the medium was replaced with drugs, bromelain, cysteamine and cisplatin in alone or in various combinations. Control wells had medium only. Plates were further incubated for 72 hrs. At the end of incubation proliferation was determined by SRB assay. […]
(§2) 6. The plate was read in a microplate reader (PowerWaveX, BIO-TEK instruments, Inc, USA) with the working wavelength 570 nm. […]
(§3) The cytotoxic effects of cysteamine, bromelain and the chemotherapeutic agent cisplatin were assessed. […] All cells were treated for 72 hours with the reagents and the cell populations were assessed using the SRB assay. Where possible, IC50 and ICmax were calculated.
(§4) Using Chou and Tallarida Method (Tallarida R J. The interaction index: a measure of drug synergism. Pain 2002; 98: 163-168), the Interaction index (γ) was evaluated for a combination of 2 and 3 drugs (γ=1 (additive) (ADD); γ=<1 (synergistic) (SYN) and γ=>1 (sub-additive) (SUB)).

[3] = tested on: MKN45 gastric cancer cells; experiment: Proliferation, SRB assay, 72 hour culture, MKN45; assay type: cell-based, human; settings: combination at the highest concentrations tested
Method: (§5) 5000 cells of each cell line were plated in 96 well plates and grown for 48 hrs at 37° C. in humidified CO2 incubator. After this the medium was replaced with drugs, bromelain, cysteamine and cisplatin in alone or in various combinations. Control wells had medium only. Plates were further incubated for 72 hrs. At the end of incubation proliferation was determined by SRB assay.
(§6) Materials and Method: • 0.4% (w/v) SRB: 1.0 g SRB— Sulforhodamine B sodium salt—(#S1402, SIGMA) in 250 ml of 1% acetic acid (stored at room temperature) • 10% (w/v) TCA: 50 g of Trichloroacetic acid (#T9159, SIGMA) in 500 ml of Milli-Q water (stored at 4° c.) • 10 mM Tris Base: 0.6055 g Tris (Trizma® base, #T6066, SIGMA) in 500 ml of Milli-Q water (stored at 4° c.) • 1% acetic acid: 10 ml of acetic acid in 1000 ml of Milli-Q water.
(§7) 1. After an incubation period of 72 hours, the old medium was discarded and cells were fixed with 200 μl of 10% (w/v) ice-cold TCA (trichloroacetic acid) for 30 minutes at 4° C.
(§8) 2. The plate was washed in distilled water 5 times.
(§9) 3. 100 μl of 0.4% (w/v) sulphorhodamine (SRB) solution was added to each well of the dry 96-well plates and they were allowed staining at room temperature for 10 mins.
4. […]
as §2

YOU mesothelioma cells = experiment: Cell viability, SRB assay, 72 h, YOU cells; assay type: cell-based; settings: Cysteamine single agent
Method: as §1, §2, §3, §4

[4] = tested on: human gastric cancer cell line KATO-III; experiment: Cell viability, SRB assay, 3 days, KATO-III; assay type: cell-based; settings: Cysteamine only
Method: (§10) Mesothelioma (YOU and PET), gastric (KATO-III), Colorectal (LS174T and HT295m21), pancreatic (ASPC-1 and CFPAC) and ovarian (A2780) cell lines were grown in RPMI supplemented with 10% FBS, 100 U/ml penicillin and 100 μg/ml streptomycin. All cells were maintained at 37° C.
(§11) The cytotoxic effects of cysteamine, bromelain and the chemotherapeutic agent cisplatin were assessed. Each agent was administered to the cells either alone or in combination with either or both of the other agents. All cells were treated for 72 hours with the reagents and the cell populations were assessed using the SRB assay. Where possible, IC50 and ICmax were calculated.
Cells were subjected to various treatment regimens as indicated for 3 days before SRB assays were performed. Data are represented as mean±SD (6 replicates for each treatment group).

[5] = tested on: hard mucin from PMP patients; experiment: Disintegration of hard PMP mucin (weight of remnant mucin); assay type: biochemical, human; settings: 50 mM cysteamine, alone or with 50 μg/ml bromelain; 37°C, 3 hours
[6] = tested on: HT29 colorectal cancer cells; experiment: Proliferation, SRB assay, 72 hour culture, HT29; assay type: cell-based; settings: individually or in combination
Method: as §5, §6, §7, §8, §9
4. […]
as §2

[7] = tested on: human colorectal cancer cell line HT295M12; experiment: Cell viability, SRB assay, 3 days, HT295M12; assay type: cell-based; settings: Column B=Cysteamine 1 mg/ml (FIG. 19)
Method: as §10, §11
Data from two independent experiments are represented as mean±SD (6 replicates for each treatment group).

[8] = FIG. 22A, 0.25 mg/ml, lowest of 0.25-1 mg/ml
[9] = FIG. 22A, 1 mg/ml, highest of 0.25-1 mg/ml
[10] = FIG. 22A, middle concentration of 0.25-1 mg/ml, value not given
[11] = FIG. 22B, 0.25 mg/ml, lowest of 0.25-1 mg/ml
[12] = FIG. 22B, 1 mg/ml, highest of 0.25-1 mg/ml
[13] = FIG. 22B, middle concentration of 0.25-1 mg/ml, value not given
[14] = FIG. 22C, 0.25 mg/ml, lowest of 0.25-1 mg/ml
[15] = FIG. 22C, 1 mg/ml, highest of 0.25-1 mg/ml
[16] = FIG. 22C, middle concentration of 0.25-1 mg/ml, value not given

Row | Compound | effect of individual agents on mucin weight over time [1] | Mean Diff. (Holm-Sidak's multiple comparisons test), control vs. treatment [2, 8] | Mean Diff. (Holm-Sidak's multiple comparisons test), control vs. treatment [2, 9] | Mean Diff. (Holm-Sidak's multiple comparisons test), control vs. treatment [2, 10] | Mean Diff. (Holm-Sidak's multiple comparisons test), control vs. treatment [2, 11] | Mean Diff. (Holm-Sidak's multiple comparisons test), control vs. treatment [2, 12] | Mean Diff. (Holm-Sidak's multiple comparisons test), control vs. treatment [2, 13] | Mean Diff. (Holm-Sidak's multiple comparisons test), control vs. treatment [2, 14] | Mean Diff. (Holm-Sidak's multiple comparisons test), control vs. treatment [2, 15] | Mean Diff. (Holm-Sidak's multiple comparisons test), control vs. treatment [2, 16] | other results
1 | CC(=O)N[C@@H](CS)C(=O)O [NAC, N-acetyl cysteine] | only showed hydration initially, with subsequent slight disintegration and hydration | 20.45 | 23.92 | 18.80 | 15.35 | 17.73 | 9.290 | 25.62 | 30.51 | 18.03 | –
2 | N[C@@H](CS)C(=O)O [L-Cysteine] | – | – | – | – | 10.30 | 51.11 | 25.30 | – | – | – | –
3 | NCCS [Cysteamine dihydrochloride] | – | 55.20 | 94.04 | 74.31 | – | – | – | – | – | – | –
4 | N[C@@H](CCC(=O)N[C@@H](CS)C(=O)NCC(=O)O)C(=O)O [L-Glutathione reduced] | – | – | – | – | – | – | – | 25.68 | 32.71 | 19.54 | –
5 | NCCS [Cysteamine, cysteamine] | only showed hydration initially, with subsequent slight disintegration and hydration | 40.75 | 87.12 | 61.62 | 30.75 | 81.49 | 53.01 | 55.93 | 88.77 | 70.70 | IC50 (as Cysteamine) (PET mesothelioma cells): 781 µg/mL; ICmax (PET mesothelioma cells; at 11.3 mg/ml cysteamine): 85% at 11.3 mg/ml; effect on in vitro growth [3]: no or little effect; IC50 (as Cysteamine) (YOU mesothelioma cells): 560 µg/mL; ICmax (YOU mesothelioma cells; at 11.3 mg/ml cysteamine): 94% at 11.3 mg/ml; Mean Diff., Column A (control) vs. Column B ([4]; 0.3 mg/ml (FIG. 20B, Table 14B)): −1.313; Mean Diff., Column A (control) vs. Column B ([4]; 0.5 mg/ml (FIG. 20A, Table 14A)): 21.10; Mean Diff., Column A (control) vs. Column B ([4]; 0.5 mg/ml (FIG. 20C, Table 14C)): 49.64; hydration of hard mucin [5]: dramatic percentage of hydration; effect of single agents on mucin weight ([1]; Bromelain 100, 200, 300 μg/ml or Cysteamine 12.5-200 mM as single agents, 2 h 37°C): only showed the mucin gaining weight, indicating hydration; Percentage Disintegration of Mucin Samples ([1]; CIS 12.5 mM, 2 h 37°C): −117%; Percentage Disintegration of Mucin Samples ([1]; CIS 25 mM, 2 h 37°C): −115%; Percentage Disintegration of Mucin Samples ([1]; CIS 50 mM, 2 h 37°C): −100%; Percentage Disintegration of Mucin Samples ([1]; CIS 100 mM, 2 h 37°C): −111%; Percentage Disintegration of Mucin Samples ([1]; CIS 200 mM, 2 h 37°C): −86%; inhibition of growth [6]: no or little effect; Mean Diff., Column A (control) vs. Column B [7]: 9.610
